Laboratory results taken from publication PMC8879095, “UHPLC-MS/MS Analysis of Antibiotics Transfer and Concentrations in Porcine Oral Fluid after Intramuscular Application” (Pharmaceuticals, 2022).
Read-outs that look alike come from different tables or passages of the source.

What was measured:
[1] = Antibiotic concentrations in porcine oral fluid after intramuscular application (UHPLC-MS/MS); type: in vivo; details: pigs, i.m.; for concentration in oral fluid at withdrawal period: at the end of the withdrawal period for tissues of each drug (Table 3); for distribution to oral fluid: conclusion in words
Procedure: All animals were born in the sow farm (8000 DanBred sows) located in Northern Poland, after crossing ♀(♂Landrace × ♀Yorskshire) × ♂Duroc. Piglets were weaned after 4 weeks of lactation with an average weight of 6 kg and then moved to the weaner stable (23,000 weaners). After the next 7 weeks, animals were transported to the 9000-places fattening farm with an average body weight of 28 kg, where the trial was performed. All farms in the aforementioned three-phase model used weekly batches and an all-in all-out system. Specialist veterinary and production management care were provided in each location.
For the purpose of the study, 240 immunologically castrated boars were divided into 8 groups, 30 animals in each pen. For the control group, 30 pigs were used in separate pens. Their initial body weight was between 40 and 60 kg. Pigs were housed at 20–25 °C. Fatteners were fed ad libitum with antimicrobial-free water and feed provided by feeders throughout the study. Before the experiment, water and feed were checked for antimicrobials, and no antimicrobial treatments were administered to these pigs before. All animals in one pen were treated due to the same health issue using disposable needles and the same drug and dosage. Pens were separated from each other with concrete walls. The drugs and dosage administered to each experimental group with an indication of withdrawal period for tissues are listed in Table 3. The oral fluid samples were collected using three cotton ropes (70 cm length with 1 cm diameter) in each pen suspended separately for 25 min on the front wall of the pen with bottoms at the pigs’ shoulder height, away from water and feed.
The research material was one pooled sample of oral fluid from 10 pigs, in triplicate, per pen. Ropes were removed immediately after collection. The first oral fluid sample was collected 24 h after the first injection. The collection of each subsequent sample took place at the same time (11:30 A.M.) for 35 consecutive days. Additionally, oral fluid samples were collected from pigs not treated with any antibiotics. Oral fluid from each pen was pooled into one 50-mL Falcon plastic tube and centrifuged at 9447× rcf for 15 min. Centrifuged material was transferred to a 15 mL plastic tube and frozen at −20 °C until analysis.
Before the analysis, the oral fluid samples were centrifuged at 9447× rcf. Next, an aliquot (1 mL) of oral fluid was placed into a 2 mL polypropylene centrifuge tube, and the 30 µL of the internal standard at the concentration of 2 µg/mL was added. For the extraction of analysed antibiotics, 600 µL of 0.5% formic acid was added, vortexed for 30 s and centrifuged for 10 min at 9447× rcf. Then, the supernatant was filtered through a […] PVDF filter into an amber glass vial before chromatographic analysis.
The mass spectrometry detection was operated in the positive ESI mode with multiple reaction monitoring (MRM).

[2] = cited from earlier work
[3] = set-up: method as in PMID 14651045, PMID 14651045; details: cited from earlier work
[4] = set-up: method as in earlier work; details: cited from earlier work
[5] = male, (Landrace × Yorkshire) × Duroc crossbred (DanBred sows), pig, intramuscular, oral fluid, time 1 d (24 h after first injection), treatment period, read-out: Avarage Concentrations in oral fluid
[6] = male, (Landrace × Yorkshire) × Duroc crossbred (DanBred sows), pig, intramuscular, oral fluid, treatment period, read-out: Avarage Concentrations in oral fluid
[7] = male, (Landrace × Yorkshire) × Duroc crossbred (DanBred sows), pig, intramuscular, oral fluid, time 4 d, posttreatment, read-out: Avarage Concentrations in oral fluid
[8] = male, (Landrace × Yorkshire) × Duroc crossbred (DanBred sows), pig, intramuscular, oral fluid, posttreatment, read-out: Avarage Concentrations in oral fluid
[9] = oral fluid, time 30 d, posttreatment

| SMILES | concentration at 1 d [1, 5] [ng/mL] | concentration at 2 d [1, 6] [ng/mL] | concentration at 3 d [1, 6] [ng/mL] | concentration at 4 d [1, 7] [ng/mL] | concentration at 5 d [1, 8] [ng/mL] | concentration at 6 d [1, 8] [ng/mL] | concentration at 7 d [1, 8] [ng/mL] | concentration at 8 d [1, 8] [ng/mL] | concentration at 9 d [1, 8] [ng/mL] | concentration at 10 d [1, 8] [ng/mL] | concentration at 11 d [1, 8] [ng/mL] | concentration at 12 d [1, 8] [ng/mL] | concentration at 13 d [1, 8] [ng/mL] | concentration at 14 d [1, 8] [ng/mL] | concentration at 15 d [1, 8] [ng/mL] | concentration at 16 d [1, 8] [ng/mL] | concentration at 17 d [1, 8] [ng/mL] | concentration at 18 d [1, 8] [ng/mL] | concentration at 19 d [1, 8] [ng/mL] | concentration at 20 d [1, 8] [ng/mL] | further results |
| --- | --- | --- | --- | --- | --- | --- | --- | --- | --- | --- | --- | --- | --- | --- | --- | --- | --- | --- | --- | --- | --- |
| CC[C@H]1OC(=O)C[C@@H](O)[C@H](C)[C@@H](O[C@@H]2O[C@H](C)[C@@H](O[C@H]3C[C@@](C)(O)[C@@H](O)[C@H](C)O3)[C@H](N(C)C)[C@H]2O)[C@@H](CC=O)C[C@@H](C)C(=O)/C=C/C(C)=C/[C@@H]1CO[C@@H]1O[C@H](C)[C@@H](O)[C@@H](OC)[C@H]1OC [TYL, tylosin] | 396 ± 68 | 958 ± 166 | 832 ± 142 | 654 ± 111 | 538 ± 96 | 475 ± 89 | 175 ± 54 | 118 ± 41 | 158 ± 62 | 49.3 ± 13 | 54.4 ± 16 | 140 ± 36 | 32.3 ± 11 | 30.6 ± 8.4 | 19.2 ± 5.2 | 52.8 ± 33 | 31.9 ± 10 | 13.9 ± 3.6 | 16.1 ± 4.6 | 25.4 ± 7.7 | concentration at 1 d ([1]; male, (Landrace × Yorkshire) × Duroc crossbred (DanBred sows), pig, intramuscular, 5 mg/kg, oral fluid, time 1 d (24 h after first injection), treatment period, read-out: Avarage Concentrations in oral fluid): 396 ng/mL; concentration at 21 d [1, 8]: 9.2 ± 2.1 ng/mL; concentration at 22 d [1, 8]: 5.5 ± 1.1 ng/mL; concentration at 23 d [1, 8]: 5.4 ± 0.8 ng/mL; concentration at 24 d [1, 8]: 6.6 ± 0.9 ng/mL; concentration at 25 d [1, 8]: 5 ± 1.3 ng/mL; concentration at 26 d [1, 8]: 3 ± 0.5 ng/mL; concentration at 27 d [1, 8]: 6.8 ± 1.7 ng/mL; concentration in oral fluid at withdrawal period ([1]; oral fluid): 6.6 ng/mL; day of peak concentration in oral fluid ([1]; oral fluid, day of drug administration): second day; time for which the analyte was present / quantified in oral fluid ([1]; oral fluid, sampling for 30 days): 27 days; Avarage Concentrations in oral fluid ([1]; oral fluid, time 28 d, posttreatment): <LOQ; Avarage Concentrations in oral fluid ([1]; oral fluid, time 29 d, posttreatment): <LOQ; Avarage Concentrations in oral fluid [1, 9]: <LOQ; distribution to oral fluid [1]: high distribution; pKa [2]: 7.1; binding degree to plasma proteins [3]: < 50% |
| CCC[C@@H]1C[C@@H](C(=O)N[C@@H]([C@H]2O[C@H](SC)[C@H](O)[C@@H](O)[C@H]2O)[C@@H](C)O)N(C)C1 [LIN, lincomycin] | 10500 | 2960 ± 446 | 4250 ± 559 | 1550 | 1670 ± 199 | 1790 ± 203 | 1480 ± 186 | 437 ± 101 | 457 ± 96 | 420 ± 83 | 194 ± 55 | 257 ± 76 | 131 ± 41 | 125 ± 33 | 277 ± 61 | 337 ± 69 | 128 ± 28 | 302 ± 51 | 279 ± 44 | 376 ± 52 | concentration at 1 d ([1]; male, (Landrace × Yorkshire) × Duroc crossbred (DanBred sows), pig, intramuscular, oral fluid, first day of medication (abstract), read-out: concentration in oral fluid on the first day of medication): 10500 ng/g; concentration at 21 d [1, 8]: 252 ± 39 ng/mL; concentration at 22 d [1, 8]: 142 ± 24 ng/mL; concentration at 23 d [1, 8]: 298 ± 33 ng/mL; concentration at 24 d [1, 8]: 326 ± 47 ng/mL; concentration at 25 d [1, 8]: 180 ± 44 ng/mL; concentration at 26 d [1, 8]: 160 ± 36 ng/mL; concentration at 27 d [1, 8]: 205 ± 43 ng/mL; concentration at 28 d ([1]; male, (Landrace × Yorkshire) × Duroc crossbred (DanBred sows), pig, intramuscular, oral fluid, time 28 d, posttreatment, read-out: Avarage Concentrations in oral fluid): 103 ± 26 ng/mL; concentration at 29 d ([1]; male, (Landrace × Yorkshire) × Duroc crossbred (DanBred sows), pig, intramuscular, oral fluid, time 29 d, posttreatment, read-out: Avarage Concentrations in oral fluid): 85.6 ± 16 ng/mL; concentration at 30 d ([1]; male, (Landrace × Yorkshire) × Duroc crossbred (DanBred sows), pig, intramuscular, oral fluid, time 30 d, posttreatment, read-out: Avarage Concentrations in oral fluid): 58.1 ng/mL; concentration in oral fluid at withdrawal period ([1]; oral fluid): 437 ng/mL; Avarage Concentrations in oral fluid ([1]; oral fluid, time 1 d (24 h after first injection), treatment period): 10,500 ± 1889 µg/L; Avarage Concentrations in oral fluid ([1]; oral fluid, time 4 d, posttreatment): 1550 ± 211 µg/L; Avarage Concentrations in oral fluid [1, 9]: 58.1 ± 12 µg/L; distribution to oral fluid [1]: high distribution; pKa [2]: about 7.6; apparent volume of distribution [4]: > 1 L/kg |
